Experimental data as given in patent US20250144172A1, “ANTI-FIBROTIC SIALIDASE INHIBITOR COMPOUNDS AND METHODS OF USE” (The Texas A&M University System, priority 2016, published 2025).
Where two headings read alike, the source gives them in different places.

Assays:
human NEU3 = human NEU3 (Homo sapiens (Human), UniProt Q9UQ49); test: human NEU3 sialidase inhibition
Text: (§1) Enzymatic activity may be defined as inhibited if the rate measured by the Michaelis-Menten equation in an in vitro assay using a substrate with a terminal sialic acid is inhibited by at least 50%. More specifically, a human sialidase inhibitor may be a compound that inhibits the rate of at least one human sialidase by at least 50% as measured by the Michaelis-Menten equation in an in vitro assay using the fluorometric substrate 4MU-NANA [2′-(4-Methylumbelliferyl)-α-D-N-acetylneuraminic acid.
(§2) In general, sialidase activity, including human sialidase activity, may be assessed at 37° C. in the presence of buffers ranging in pH from 3.7 to 7.4. […] Bovine serum albumin (BSA) is added to the buffer at a concentration of 100 ug/ml. Sialidase at a final concentration of 300 ng/ml is then added to the buffer. A sialidase inhibitor is then added to the mixture at a series of final concentrations. The reaction mixture is incubated for 30 minutes to allow the inhibitor to bind the sialidase. The fluorometric substrate 4MU-NANA [2′-(4-Methylumbelliferyl)-α-D-N-acetylneuraminic acid sodium salt hydrate is then added at a final concentration of 200 μM. […] The total volume of each reaction mixture is 0.1 ml. The cleavage of 4MU-NANA is then monitored by fluorescence every 20 minutes for 5 hours with excitation light at 360 nm and the fluorescence emission at 460 nm.
(§3) The fluorescence in the absence of sialidases is subtracted from all readings.

human NEU4 = human NEU4 (Homo sapiens (Human), UniProt Q8WWR8); test: human NEU4 sialidase inhibition
Text: as §1, §2, §3

human NEU2 = human NEU2 (Homo sapiens (Human), UniProt Q9Y3R4); test: human NEU2 sialidase inhibition
human NEU2, sequence (Q9Y3R4 whole entry): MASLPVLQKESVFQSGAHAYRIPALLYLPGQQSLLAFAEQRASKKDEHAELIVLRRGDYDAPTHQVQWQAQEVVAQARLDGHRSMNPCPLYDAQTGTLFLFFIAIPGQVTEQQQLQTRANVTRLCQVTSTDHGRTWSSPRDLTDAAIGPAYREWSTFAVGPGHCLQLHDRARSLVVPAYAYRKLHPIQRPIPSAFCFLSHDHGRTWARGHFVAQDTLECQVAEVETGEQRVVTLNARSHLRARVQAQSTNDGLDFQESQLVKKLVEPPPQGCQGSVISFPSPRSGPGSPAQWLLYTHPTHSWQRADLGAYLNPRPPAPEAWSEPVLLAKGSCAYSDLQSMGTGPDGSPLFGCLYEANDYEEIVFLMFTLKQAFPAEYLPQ
Text: as §1, §2, §3

human NEU1 = human NEU1 (Homo sapiens (Human), UniProt Q99519); test: human NEU1 sialidase inhibition
Text: as §1, §2, §3

human PBMC = test: fibrocyte formation in human PBMC, serum-free medium; assay type: cell-based; conditions: 5 days; 100 ng/ml sialidase, 10 μg/ml DANA or 1 μg/ml SAP
Protocol: Human peripheral blood was collected from healthy adult volunteers who gave written consent and with specific approval from the Texas A&M University human subjects Institutional Review Board. Peripheral blood mononuclear cells (PBMC) were isolated from blood using Ficoll-Paque Plus (GE Healthcare Biosciences, Piscataway, NJ). Human PBMC were incubated in serum-free medium (FibroLife basal media (LM-0001, Lifeline Cell Technology, Walkersville, MD), supplemented with 10 mM HEPES (Sigma-Aldrich, St. Louis, MO), 1x non-essential amino acids (Sigma-Aldrich), 1 mM sodium pyruvate (Sigma-Aldrich), 2 mM glutamine (Invitrogen, Carlsbad, CA), 100 U/ml penicillin, 100 μg/ml streptomycin (Sigma-Aldrich), and 1x ITS-3 (Sigma-Aldrich) in the presence of absence of 100 ng/ml recombinant human sialidases (Origene, Rockville MD), 10 μg/ml DANA (Calbiochem, San Diego, CA), or 1 μg/ml human SAP (Calbiochem). After 5 days, fibrocytes were counted, and results are presented in FIG. 5.

[1] = read-out: NEU3 IC50, human NEU3
[2] = read-out: NEU2 IC50, human NEU2
[3] = read-out: NEU1 IC50, human NEU1
[4] = read-out: NEU4 IC50, human NEU4

human NEU3, sequence (Q9UQ49 whole entry): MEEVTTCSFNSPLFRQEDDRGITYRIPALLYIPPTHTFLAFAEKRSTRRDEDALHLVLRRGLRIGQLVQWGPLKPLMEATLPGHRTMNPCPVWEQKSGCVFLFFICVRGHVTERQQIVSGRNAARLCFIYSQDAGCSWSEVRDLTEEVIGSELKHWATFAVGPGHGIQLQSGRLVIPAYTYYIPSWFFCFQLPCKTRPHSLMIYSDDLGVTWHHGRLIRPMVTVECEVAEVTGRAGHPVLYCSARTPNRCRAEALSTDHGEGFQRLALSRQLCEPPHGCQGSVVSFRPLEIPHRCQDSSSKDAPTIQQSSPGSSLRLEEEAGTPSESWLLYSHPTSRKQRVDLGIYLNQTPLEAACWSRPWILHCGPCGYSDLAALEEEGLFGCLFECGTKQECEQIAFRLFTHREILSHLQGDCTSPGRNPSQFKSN
human NEU4, sequence (Q8WWR8 whole entry): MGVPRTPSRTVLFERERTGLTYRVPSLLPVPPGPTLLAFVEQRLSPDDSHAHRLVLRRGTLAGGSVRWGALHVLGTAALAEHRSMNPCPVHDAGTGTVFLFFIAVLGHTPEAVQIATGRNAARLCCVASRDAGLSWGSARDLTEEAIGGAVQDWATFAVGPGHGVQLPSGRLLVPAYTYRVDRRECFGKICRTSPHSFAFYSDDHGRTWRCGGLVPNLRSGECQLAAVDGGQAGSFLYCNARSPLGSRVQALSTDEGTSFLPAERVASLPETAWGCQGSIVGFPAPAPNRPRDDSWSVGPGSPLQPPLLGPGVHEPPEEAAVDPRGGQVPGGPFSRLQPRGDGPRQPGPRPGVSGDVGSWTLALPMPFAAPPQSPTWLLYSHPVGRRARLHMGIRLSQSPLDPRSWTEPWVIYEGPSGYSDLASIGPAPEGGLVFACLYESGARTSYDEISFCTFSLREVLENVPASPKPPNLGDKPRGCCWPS

CCC(CC)O[C@@H]1CC(C(=O)O)C=C(n2cc([C@]3(O)CCC4C5CCc6cc(O)ccc6C5CC[C@@]43C)nn2)[C@H]1NC(C)=O (stereo partly drawn) [Compound 29]
IC50 (human NEU3; NEU3 IC50, human NEU3): 350 ± 100 µM
IC50 (human NEU4): 800 ± 400 µM

CCC(CC)O[C@@H]1CC(C(=O)O)C=C(n2cc(C(C)(C)O)nn2)[C@H]1NC(C)=O (stereo partly drawn) [Compound 30]
IC50 (human NEU3; [1]): 640 ± 210 µM

CC(=O)N[C@H]1[C@H]([C@H](O)[C@H](O)CN=[N+]=[N-])OC(C(=O)O)=C[C@@H]1O [Compound 32]
IC50 (human NEU2; [2]): 31 ± 6 µM

[N-]=[N+]=NC[C@@H](O)[C@@H](O)[C@@H]1OC(C(=O)O)=C[C@H](O)[C@H]1NC(=O)CO [Compound 33]
IC50 (human NEU2; [2]): 190 µM

COC[C@@H](O)[C@@H](O)[C@@H]1OC(C(=O)O)=C[C@H](O)[C@H]1NC(C)=O [Compound 35]
IC50 (human NEU2; [2]): 410 µM

CC(=O)N[C@@H]1C(N=[N+]=[N-])C=C(C(=O)O)OC1C(O)C(O)CO (stereo partly drawn) [Compound 37]
IC50 (human NEU1): 360 ± 50 µM
IC50 (human NEU3; NEU3 IC50, human NEU3): 54 ± 5 µM
IC50 (human NEU4): 1000 ± 60 µM

CC(=O)N[C@@H]1C(N=[N+]=[N-])C=C(C(=O)O)OC1CNOCc1ccccc1 (stereo partly drawn) [Compound 41]
IC50 (human NEU3; NEU3 IC50, human NEU3): 24 ± 2 µM

CC(=O)N[C@@H]1C(N=[N+]=[N-])C=C(C(=O)O)OC1CN(Cc1ccccc1)OCc1ccccc1 (stereo partly drawn) [Compound 42]
IC50 (human NEU3; NEU3 IC50, human NEU3): 24 ± 11 µM
IC50 (human NEU4): 350 ± 180 µM

CC(=O)N[C@@H]1C(N=[N+]=[N-])C=C(C(=O)O)OC1CNNc1ccccc1 (stereo partly drawn) [Compound 43]
IC50 (human NEU3; NEU3 IC50, human NEU3): 20 ± 8 µM

CC(=O)N[C@@H]1C(N)C=C(C(=O)O)OC1CNc1ccccc1 (stereo partly drawn) [Compound 44]
IC50 (human NEU3; NEU3 IC50, human NEU3): 540 ± 30 µM

CC(=O)N[C@@H]1C(N)C=C(C(=O)O)OC1CNc1ccccc1 (stereo partly drawn) [Compound 45]
IC50 (human NEU2; NEU2 IC50, human NEU2): 100 ± 13 µM
IC50 (human NEU3; NEU3 IC50, human NEU3): 370 ± 80 µM

CC(=O)N[C@@H]1C(O)C=C(C(=O)O)OC1CNNCc1ccc(-c2ccccc2)cc1 (stereo partly drawn) [Compound 47]
IC50 (human NEU3; NEU3 IC50, human NEU3): 70 ± 20 µM
IC50 (human NEU4): 200 ± 20 µM

CC(=O)N[C@@H]1C(O)C=C(C(=O)O)OC1C(O)C(O)CN=[N+]=[N-] (stereo partly drawn) [Compound 48]
IC50 (human NEU1): 620 ± 10 µM
IC50 (human NEU3; NEU3 IC50, human NEU3): 19.7 ± 2.3 µM
IC50 (human NEU4): 60 ± 20 µM

[N-]=[N+]=NCC(=O)N[C@@H]1C(O)C=C(C(=O)O)OC1C(O)C(O)CO (stereo partly drawn) [Compound 49]
IC50 (human NEU1): 29 ± 0.5 µM
IC50 (human NEU3; NEU3 IC50, human NEU3): 4.7 ± 0.3 µM
IC50 (human NEU4): 4.5 ± 0.1 µM

O=C(Cn1cc(-c2ccccc2)nn1)N[C@@H]1C(O)C=C(C(=O)O)OC1C(O)C(O)CO (stereo partly drawn) [Compound 50]
IC50 (human NEU4): 250 ± 40 µM

CC(=O)N[C@H]1C([C@@H](O)[C@@H](O)Cn2cc(-c3ccccc3)nn2)OC(C(=O)O)=C[C@@H]1O (stereo partly drawn) [Compound 51]
IC50 (human NEU1; [3]): 200 ± 30 µM
IC50 (human NEU3; [1]): 4.6 ± 0.2 µM
IC50 (human NEU4; [4]): 2.3 ± 0.2 µM

CCOc1cn(C[C@H](O)[C@H](O)C2OC(C(=O)O)=C[C@H](O)[C@H]2NC(C)=O)nn1 (stereo partly drawn) [Compound 52]
IC50 (human NEU1; [3]): 170 ± 20 µM
IC50 (human NEU3; [1]): 90 ± 10 µM
IC50 (human NEU4; [4]): 3.6 ± 0.3 µM

CC(=O)N[C@H]1C([C@@H](O)[C@@H](O)Cn2cc(OCc3ccccc3)nn2)OC(C(=O)O)=C[C@@H]1O (stereo partly drawn) [Compound 53]
IC50 (human NEU2; [2]): 800 ± 70 µM
IC50 (human NEU3; [1]): 5.5 ± 0.6 µM
IC50 (human NEU4; [4]): 1.7 ± 0.2 µM

CC(=O)N[C@H]1C([C@@H](O)[C@@H](O)Cn2cc(CO)nn2)OC(C(=O)O)=C[C@@H]1O (stereo partly drawn) [Compound 54]
IC50 (human NEU1; [3]): > 1000 µM
IC50 (human NEU3; [1]): 80 ± 10 µM

CC(=O)N[C@H]1C([C@@H](O)[C@@H](O)Cn2cc(CCO)nn2)OC(C(=O)O)=C[C@@H]1O (stereo partly drawn) [Compound 55]
IC50 (human NEU1; [3]): > 1000 µM
IC50 (human NEU3; [1]): 38 ± 2 µM
IC50 (human NEU4; [4]): 0.81 ± 0.04 µM

CC(=O)N[C@H]1C([C@@H](O)[C@@H](O)Cn2cc(CCCO)nn2)OC(C(=O)O)=C[C@@H]1O (stereo partly drawn) [Compound 56]
IC50 (human NEU1; [3]): 660 ± 20 µM
IC50 (human NEU3; [1]): 39 ± 1 µM
IC50 (human NEU4; [4]): 2.1 ± 0.1 µM

CC(=O)N[C@H]1C([C@@H](O)[C@@H](O)Cn2cc(C(C)(C)O)nn2)OC(C(=O)O)=C[C@@H]1O (stereo partly drawn) [Compound 57]
IC50 (human NEU1; [3]): > 1000 µM
IC50 (human NEU4; [4]): 4 ± 0.3 µM

SAP: human SAP (Calbiochem), serum amyloid protein
fibrocyte formation / differentiation (human PBMC): No fibrocytes were detected
